Publication PMC8041284, “Tunable Methacrylamides for Covalent Ligand Directed Release Chemistry” (Journal of the American Chemical Society, 2021)

Target: BTK (Homo sapiens, UniProt Q06187)
Assay: biochemical
Conditions: read-out: BTK inhibition (%)

BTK, sequence (Q06187 402-655 limits assumed): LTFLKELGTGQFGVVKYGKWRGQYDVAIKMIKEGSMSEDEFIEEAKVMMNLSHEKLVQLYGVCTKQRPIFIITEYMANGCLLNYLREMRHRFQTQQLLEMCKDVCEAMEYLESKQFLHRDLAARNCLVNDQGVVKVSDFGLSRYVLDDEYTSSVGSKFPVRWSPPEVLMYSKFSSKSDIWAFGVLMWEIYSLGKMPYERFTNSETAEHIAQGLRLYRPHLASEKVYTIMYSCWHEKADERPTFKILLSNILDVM

| SMILES | inhibition at 10 µM [%] |
| --- | --- |
| CC1(C)C(=O)N(c2ccc(C#N)c(C(F)(F)F)c2)C(=O)N1CCCCO [PCM-0216095] | 11.6 |
| C[C@]12CC[C@H]3[C@@H](CCC4=CC(=O)C=C[C@@]43C)[C@@H]1CC[C@@H]2O [PCM-0216069] | -13.1 |
| C=C1CC[C@H]2[C@@H](/C=C(\C)C(=O)[C@@]3(OC(C)=O)C[C@H](C)[C@H](OC(=O)c4ccccc4)[C@@H]3[C@H]1OC(C)=O)C2(C)C [PCM-0216520] | -20.1 |

Same assay, conditions: read-out: BTK inhibition (%), 0.75 uM BTK, […] probe 3l, 15 min preincubation

| SMILES | inhibition at 10 µM [%] |
| --- | --- |
| O=C(/C=C\n1cnc(-c2cc(C(F)(F)F)cc(C(F)(F)F)c2)n1)NNc1cnccn1 [PCM-0095752] | 6.9 |
| C[C@]1(COc2ccc(N3CCC(Oc4ccc(OC(F)(F)F)cc4)CC3)cc2)Cn2cc([N+](=O)[O-])nc2O1 [PCM-0215096] | -1.5 |
| CN1[C@@H]2CC[C@H]1CC(OC(c1ccccc1)c1ccccc1)C2 (stereo partly drawn) [PCM-0086292] | -3.1 |
| O=c1[nH]c2ccccc2n1CCN1CCN(c2cccc(C(F)(F)F)c2)CC1 [PCM-0214925] | -34.2 |
| CC(C)[C@H]1C(=O)N[C@@H](CCCN=C(N)N)C(=O)NCC(=O)N[C@@H](CC(=O)O)C(=O)N[C@H](Cc2ccccc2)C(=O)N1C [PCM-0095583] | -6.9 |
| CCCN(CCC)S(=O)(=O)c1ccc(C(=O)O)cc1 [PCM-0086122] | -4.7 |
| C=CC(=O)Nc1ccc(CN2C(=O)N(c3cc(OC)cc(OC)c3)Cc3cnc(Nc4ccc(N5CCN(C)CC5)cc4)nc32)cc1 [PCM-0215559] | 88.3 |
| CN1c2ccccc2C(=O)Nc2cnc(Nc3ccc(N4CCC(O)CC4)cc3)nc21 [PCM-0215745] | 93.8 |
| CCCc1cc(C)[nH]c(=O)c1CNC(=O)c1cc(-c2ccc(N3CCN(C)CC3)nc2)nc2c1cnn2C(C)C [PCM-0215988] | 15.4 |
| C[C@]12CC[C@H]3[C@@H](CC[C@@]45O[C@@H]4C(O)=C(C#N)C[C@]35C)[C@@H]1CC[C@@H]2O [PCM-0214622] | 13.2 |
| O=C(Nc1ccc(O)c(C(=O)O)c1)c1cccc(NC(=O)c2ccco2)c1 [PCM-0215939] | -8.5 |
| CC(=O)O/N=C1/C(c2c(O)[nH]c3cc(Br)ccc23)=Nc2ccccc21 [PCM-0215536] | 60.7 |
| O=C(NC[C@H]1CN(c2ccc(N3CCOCC3=O)cc2)C(=O)O1)c1ccc(Cl)s1 [PCM-0095448] | 4.7 |
| Cc1ccc(NC(=O)C2(c3ccc4c(c3)OC(F)(F)O4)CC2)nc1-c1cccc(C(=O)O)c1 [PCM-0095124] | -9.3 |
| CCCCC(=O)O[C@H]1CC[C@H]2[C@@H]3CCc4cc(O)ccc4[C@H]3CC[C@]12C [PCM-0214721] | 17.9 |
| C=CC(=O)Nc1cc(Nc2nccc(-c3c[nH]c4ccccc34)n2)c(OC)cc1N(C)CCN(C)C [PCM-0215489] | 91.7 |
| O=c1sn(-c2cccc3ccccc23)c(=O)n1Cc1ccccc1 [PCM-0095450] | -12.4 |
| NC(=O)c1ccc[n+]([C@@H]2O[C@H](COP(=O)([O-])OP(=O)(O)OC[C@H]3O[C@@H](n4cnc5c(N)ncnc54)[C@H](O)[C@@H]3O)[C@@H](O)[C@H]2O)c1 [PCM-0090146] | -13.6 |
| C=C1C(=O)[C@]23[C@H](O)[C@H]1CC[C@H]2[C@@]12CO[C@]3(O)[C@@H](O)[C@@H]1C(C)(C)CC[C@@H]2O [PCM-0214681] | -1.6 |
| Nc1ncnc2c1ncn2[C@@H]1O[C@H](COP(=O)(O)OP(=O)(O)O)[C@@H](O)[C@H]1O [PCM-0216291] | 3.1 |
| CC(C)N(CCC(=O)c1ccc2ccccc2c1)Cc1ccccc1 [PCM-0064875] | 29 |
| CCOC(=O)c1ncn2c1CN(C)C(=O)c1cc(F)ccc1-2 [PCM-0065129] | 3.1 |
| Cn1c(=O)c2[nH]cnc2n(C)c1=O [PCM-0064445] | -24.9 |
| NC(N)=NC(N)=NCCc1ccccc1 [PCM-0085798] | 4.1 |

| SMILES | inhibition at 10 µM [%] |
| --- | --- |
| O=C(O)c1c[nH]c2ccccc12 [PCM-0215132] | 6.2 |
| O=C(O)c1cn(-c2ccc(F)cc2)c2cc(N3CCNCC3)c(F)cc2c1=O [PCM-0086286] | -3.4 |
| COC(=O)CC1CC(c2ccc(O)cc2)=NO1 (stereo not drawn) [PCM-0216118] | -16.6 |
| NC(=O)NCCC[C@H](N)C(=O)O [PCM-0215941] | -17.9 |
| CCOC(=O)NCCCC(=O)NCCc1ccccc1 [PCM-0215356] | -17 |
| O=C(O)COCCN1CCN(C(c2ccccc2)c2ccc(Cl)cc2)CC1 (stereo not drawn) [PCM-0065180] | 15.2 |
| CC(C)C(C(=O)O)N1C(=O)/C(=C\c2ccc(Br)cc2)SC1=S (stereo not drawn) [PCM-0215783] | -3.1 |
| Cc1cnc(NC(=O)C2=C(O)c3ccccc3S(=O)(=O)N2C)s1 [PCM-0086060] | -6.2 |
| O=S(=O)(NCCNC/C=C/c1ccc(Br)cc1)c1cccc2cnccc12 [PCM-0095146] | -22.8 |
| COCCOC(=O)C1=C(C)NC(C)=C(C(=O)OC(C)C)C1c1cccc([N+](=O)[O-])c1 (stereo not drawn) [PCM-0064753] | 5.4 |
| CC(=O)OCCc1ccc(O)c(O)c1 [PCM-0214986] | -9.7 |
| Cn1cc(C2=C(c3cn(C4CCN(Cc5ccccn5)CC4)c4ccccc34)C(=O)NC2=O)c2ccccc21 [PCM-0094982] | 10.3 |
| C=C1[C@H]2CC[C@@H]3[C@H]2C(C)(C)CCC[C@]13C [PCM-0216219] | 4.6 |
| Cc1ccc(C(C)C)cc2c(C)ccc1-2 [PCM-0215089] | 10.1 |
| Oc1ccc(OCc2ccccc2)cc1 [PCM-0086466] | 8.6 |
| CCOC(=O)CCC(=O)O[C@H]1[C@H](O[C@@H]2[C@@H](C)[C@H](O[C@H]3C[C@@](C)(OC)[C@@H](O)[C@H](C)O3)[C@@H](C)C(=O)O[C@H](CC)[C@@](C)(O)[C@H](O)[C@@H](C)C(=O)[C@H](C)C[C@@]2(C)O)O[C@H](C)C[C@@H]1N(C)C [PCM-0214733] | -14.8 |
| CC[C@@H]1/C=C(\C)C[C@H](C)C[C@H](OC)[C@H]2O[C@@](O)(C(=O)C(=O)N3CCCC[C@H]3C(=O)O[C@H](/C(C)=C/[C@@H]3CC[C@@H](O)[C@H](OC)C3)[C@H](C)[C@@H](O)CC1=O)[C@H](C)C[C@@H]2OC [PCM-0215308] | 6.9 |
| CC(O)(P(=O)(O)O)P(=O)(O)O [PCM-0086550] | -27.2 |
| Cc1cc2c(s1)Nc1ccccc1N=C2N1CCN(C)CC1 [PCM-0064824] | -8.6 |
| CC(=O)O[C@H]1C(=O)[C@@]2(C)[C@H]([C@H](OC(=O)c3ccccc3)[C@]3(O)C[C@H](OC(=O)[C@H](O)[C@@H](NC(=O)c4ccccc4)c4ccccc4)C(C)=C1C3(C)C)[C@]1(OC(C)=O)CO[C@@H]1C[C@@H]2O [PCM-0214601] | -17.9 |
| Clc1ccc(C(c2ccccc2Cl)C(Cl)Cl)cc1 (stereo not drawn) [PCM-0064460] | 19.5 |
| CC(=O)O[C@]1(C(C)=O)CC[C@H]2[C@@H]3C[C@H](C)C4=CC(=O)CC[C@]4(C)[C@H]3CC[C@@]21C [PCM-0095356] | -18.7 |
| Nc1ccc(C(=O)Nc2cccc(-c3nc(N4CCOCC4)c4oc5ncccc5c4n3)c2)cn1 [PCM-0094950] | -4.8 |
| CC1CCc2cc(F)cc3c(=O)c(C(=O)O)cn1c23 (stereo not drawn) [PCM-0085858] | -10.1 |

| SMILES | inhibition at 10 µM [%] |
| --- | --- |
| CC(=O)Cc1cc(=O)c2c(C)cc(O)c([C@@H]3O[C@H](CO)[C@@H](O)[C@H](O)[C@H]3O)c2o1 [PCM-0216524] | 3.9 |
| C[C@]1(c2nc3c(C(N)=O)cccc3[nH]2)CCCN1 [PCM-0094885] | -6.2 |
| CCC[C@H](Nc1nc(-c2ccc(NC(=O)NCC)c(OC)c2)ncc1C)c1cccnc1 [PCM-0095772] | -14 |
| Cc1ccc(C(=O)Cn2c3c(sc2=N)CCCC3)cc1 [PCM-0095433] | -11.7 |
| COC(=O)C1=C(C)NC(C)=C(C(=O)OCCN(C)Cc2ccccc2)C1c1cccc([N+](=O)[O-])c1 (stereo not drawn) [PCM-0064729] | 47.5 |
| C[C@]12CC[C@@H]3c4ccc(O)cc4CC[C@H]3[C@@H]1CCC2=O [PCM-0214644] | -4.8 |
| O=C1N=C(N2CCOCC2)CN1c1ccc(Cl)cc1 [PCM-0216140] | -1.5 |
| CCOc1nc2cccc(C(=O)OCc3oc(=O)oc3C)c2n1Cc1ccc(-c2ccccc2-c2noc(=O)[nH]2)cc1 [PCM-0090373] | 24.1 |
| CC(=O)Oc1cccc2ccccc12 [PCM-0215066] | -21 |
| NC(=O)c1cccc(-c2cccc(OC(=O)NC3CCCCC3)c2)c1 [PCM-0095495] | -6.2 |
| O=[N+]([O-])c1cn2c(n1)OC[C@@H](OCc1ccc(OC(F)(F)F)cc1)C2 [PCM-0094995] | 3.1 |
| O=C(CCCCCN1C(=O)c2cccc3cccc(c23)C1=O)NO [PCM-0095631] | 7.7 |
| CN1[C@@H]2CCC[C@H]1CC(NC(=O)c1nn(C)c3ccccc13)C2 (stereo partly drawn) [PCM-0064932] | 10.2 |
| CN1[C@@H]2CC(O)C[C@H]1[C@@H]1O[C@@H]12 (stereo partly drawn) [PCM-0095322] | -2.3 |
| COc1ccccc1OCC(O)CO (stereo not drawn) [PCM-0086515] | -2.3 |
| CC(C)Oc1ccc(-c2cnc3c(-c4ccnc5ccccc45)cnn3c2)cc1 [PCM-0215300] | -1.5 |
| O=C(O)C1=CO[C@@H](O[C@@H]2O[C@H](CO)[C@@H](O)[C@H](O)[C@H]2O)[C@@H]2C(CO)=CC[C@H]12 [PCM-0086855] | -2.8 |
| Cn1cc(-c2ccc(S(=O)(=O)n3ccc(/C=C/C(=O)Nc4ccccc4N)c3)cc2)cn1 [PCM-0215419] | 32.4 |
| CC(=O)Nc1cccc2c1c(Sc1ccc(Cl)cc1)c(C)n2CC(=O)O [PCM-0215238] | -9.3 |
| OC[C@H]1O[C@@H](O[C@@H]2[C@@H](CO)O[C@](O)(CO)[C@H]2O)[C@H](O)[C@@H](O)[C@H]1O [PCM-0214810] | 13.2 |
| O=C(O)CCCCC1CCSS1 (stereo not drawn) [PCM-0090722] | -16.3 |
| COc1ccc(N2C(=O)/C(=C\c3ccc([N+](=O)[O-])s3)SC2=S)cc1 [PCM-0215671] | 22.4 |
| Cc1ccc(C(=O)Nc2ccc(Oc3cc4cnn(C)c4cc3-c3cn[nH]c3)c(F)c2)c(=O)n1-c1ccc(F)cc1 [PCM-0215736] | 105 |
| CO/N=C(\C(=O)N[C@@H]1C(=O)N2C(C(=O)O)=C(Cn3ccc(=N)n3CCO)CS[C@H]12)c1csc(N)n1 [PCM-0215184] | 9.4 |
